What was measured:
SAOS-2 [1] = assay: Compound was evaluated for the intrinsic activity for accumulation of cyclic AMP in SaOS-2 (human osteosarcoma) cells.; type: functional
SAOS-2 [2] = assay: Compound was evaluated for the accumulation of cyclic AMP in SaOS-2 (human osteosarcoma) cells.; type: functional, cell-based; details: Homo sapiens, SAOS-2
UMR106-06 [3] = assay: Compound was evaluated for the intrinsic activity for accumulation of cyclic AMP in UMR10606 (rat osteosarcoma) cells.; type: functional
OK-1 [4] = assay: Compound was evaluated for the accumulation of cyclic AMP in OK-1 cells.; type: functional, cell-based, opossum
OK-1 [5] = assay: Displacement of [125I]-chick PTHrP-(1-36)-NH2 from opossum (OK-1) kidney cells; type: functional
OK-1 [6] = assay: Compound was evaluated for the intrinsic activity for accumulation of cyclic AMP in OK-1 cells.; type: functional, opossum
UMR106-06 [7] = assay: Compound was evaluated for the accumulation of cyclic AMP in UMR10606 (rat osteosarcoma) cells.; type: functional, cell-based; details: Rattus norvegicus, UMR106-06

`CC[C@H](C)[C@H](NC(=O)[C@H](CCC(=O)O)NC(=O)[C@H](CO)NC(=O)[C@@H](NC(=O)[C@@H](N)CO)C(C)C)C(=O)N[C@@H](CCC(N)=O)C(=O)N[C@@H](CC(C)C)C(=O)N[C@@H](CCSC)C(=O)N[C@@H](Cc1c[nH]cn1)C(=O)N[C@@H](CC(N)=O)C(=O)N[C@@H](CC(C)C)C(=O)NCC(=O)N[C@@H](CCCCN)C(=O)N[C@@H](Cc1c[nH]cn1)C(=O)N[C@@H](CC(C)C)C(=O)N[C@@H](CC(N)=O)C(=O)N[C@@H](CO)C(=O)N[C@@H](CCSC)C(=O)N[C@@H](CCC(=O)O)C(=O)N[C@@H](CCCN=C(N)N)C(=O)N[C@H](C(=O)N[C@@H](CCC(=O)O)C(=O)N[C@@H](Cc1c[nH]c2ccccc12)C(=O)N[C@@H](CC(C)C)C(=O)N[C@@H](CCCN=C(N)N)C(=O)N[C@@H](CCCCN)C(=O)N[C@@H](CCCCN)C(=O)N[C@@H](CC(C)C)C(=O)N[C@@H](CCC(N)=O)C(=O)N[C@@H](CC(=O)O)C(=O)N[C@H](C(=O)N[C@@H](Cc1c[nH]cn1)C(=O)N[C@@H](CC(N)=O)C(=O)N[C@@H](Cc1ccccc1)C(=O)N[C@H](C(=O)N[C@@H](C)C(N)=O)C(C)C)C(C)C)C(C)C` showed an Intrinsic activity (SAOS-2 [1]) of 0.96, an EC50 (SAOS-2 [2]) of 2.3 nM and an Intrinsic activity (UMR106-06 [3]) of 0.98. For the same molecule, the EC50 (OK-1 [4]) was 4.2 nM, the pKD (OK-1 [5]) was 8.6 and the Intrinsic activity (OK-1 [6]) was 1. For the same molecule, the EC50 (UMR106-06 [7]) was 3.3 nM.

From ChEMBL document CHEMBL1159136, “Dipeptide mimetics can substitute for the receptor activation domain resulting in highly potent analogues of hPTH(136)” (Bioorg Med Chem Lett, 1996)
